Data as given in US20260240834A1, “METHODS OF TREATING CANCER” (XRad Holding Cayman Limited, priority 2023, published 2026).
Where two headings read alike, the source gives them in different places.

Experiments:
[1] = system: HCC1937 BRCA1 mutant breast cancer cell line; experiment: CellTiter-Glo (CTG) cell growth inhibition, HCC1937; assay type: cell-based, human; conditions: HCC1937 cells; for IC50: Homo sapiens, 168 h
Description: (§1) A549 human lung carcinoma cell line, UWB1.289 BRCA1 mutant human ovarian cancer cell line, and UWB1.289+BRCA1 stable cell line derived from UWB1.289, in which wild-type BRCA1 was restored, were obtained from the American Type Culture Collection (ATCC). Capan-1 BRCA2 mutant human pancreatic cell line was obtained from the Duke Cell Culture Facility (Duke University, Durham, NC). HCC1937 BRCA1 mutant breast cancer cell line was obtained from Simon Powell (Memorial-Sloan Kettering, NY, NY). All cell lines were authenticated by short tandem repeat profiling and tested negative for mycoplasma. A549 cells were cultured in RPMI 1640 medium (Gibco), supplemented with 10% fetal bovine serum (FBS) (Corning) and 1× Antibiotic-Antimycotic (A-A) (Gibco). Capan-1 cells were grown in Iscove's Modified Dulbecco's Medium (IMDM) (Gibco), 20% FBS and 1×A-A. HCC1937 cells were grown in Iscove's Modified Dulbecco's Medium, 15% serum, and L-glutamine (2 mM). UWB1.289 and UWB1.289+BRCA1 cells were grown in 50% RPMI 1640 supplemented with 1 mM Sodium Pyruvate, 10 mM HEPES and 4500 mg/L glucose and 50% Mammary Epithelial Growth Medium (MEGM) (Clonetics) with 200 ug/ml G-418 (Gibco) and supplemented with 3% FBS and 1×A-A. All cell lines were grown at 37° C. in 5% CO2. Cell growth inhibition was determined via the CellTiter-Glo (CTG) assay (Promega). […] HCC1937 and UWB1.289 cells were treated with increasing concentrations of Compound A, niraparib, or the combination for 7 days.

[2] = system: Capan-1 BRCA2 mutant human pancreatic cell line; experiment: CellTiter-Glo (CTG) cell growth inhibition, Capan-1; assay type: cell-based; conditions: Capan-1 cells; for IC50: Homo sapiens, 312 h
Description: as §1

[3] = system: UWB1.289 BRCA1 mutant human ovarian cancer cell line; experiment: CellTiter-Glo (CTG) cell growth inhibition, UWB1.289; assay type: cell-based; conditions: UWB1.289 cells; for IC50: Homo sapiens
Description: as §1

[4] = system: UWB1.289+BRCA1 stable cell line (wild-type BRCA1 restored); experiment: CellTiter-Glo (CTG) cell growth inhibition, UWB1.289+BRCA1; assay type: cell-based, human; conditions: for IC50: Homo sapiens, UWB1289, UWB1.289 + BRCA1 cells
Description: as §1

[5] = system: A549 human lung carcinoma cell line, BRCA2 knockdown (shBRCA2); experiment: Clonogenic survival assay, A549 with shBRCA2; assay type: cell-based; conditions: A549 cells with BRCA2 knockdown, Compound A at 250, 500 or 1000 nM, 8 days
Description: (§2) A549 human lung carcinoma cell line, UWB1.289 BRCA1 mutant human ovarian cancer cell line, and UWB1.289+BRCA1 stable cell line derived from UWB1.289, in which wild-type BRCA1 was restored, were obtained from the American Type Culture Collection (ATCC). Capan-1 BRCA2 mutant human pancreatic cell line was obtained from the Duke Cell Culture Facility (Duke University, Durham, NC). HCC1937 BRCA1 mutant breast cancer cell line was obtained from Simon Powell (Memorial-Sloan Kettering, NY, NY). All cell lines were authenticated by short tandem repeat profiling and tested negative for mycoplasma. A549 cells were cultured in RPMI 1640 medium (Gibco), supplemented with 10% fetal bovine serum (FBS) (Corning) and 1× Antibiotic-Antimycotic (A-A) (Gibco). Capan-1 cells were grown in Iscove's Modified Dulbecco's Medium (IMDM) (Gibco), 20% FBS and 1×A-A. HCC1937 cells were grown in Iscove's Modified Dulbecco's Medium, 15% serum, and L-glutamine (2 mM). […]
(§3) UWB1.289 and UWB1.289+BRCA1 cells were plated in 6-well plates at 1000 cells/well and treated with DMSO or Compound A at 250, 500 or 1000 nM for 8 days before colonies were counted. For shRNA experiments, A549 cells were treated with DMSO or Compound A at 250, 500 or 1000 nM following transduction of control shRNA or shBRCA2 for 8 days before colonies were counted. […]

[6] = system: UWB1.289 BRCA1 mutant human ovarian cancer cell line; experiment: Clonogenic survival assay, UWB1.289; assay type: cell-based; conditions: UWB1.289 cells, Compound A at 250, 500 or 1000 nM, 8 days
Description: as §2, §3

[7] = system: UWB1.289+BRCA1 stable cell line (wild-type BRCA1 restored); experiment: Clonogenic survival assay, UWB1.289+BRCA1; assay type: cell-based, human; conditions: UWB1.289+BRCA1 cells, Compound A at 250, 500 or 1000 nM, 8 days
Description: as §2, §3

[8] = Compound A in combination with niraparib, 7 days

## CC(C)NCCOc1ncc(-c2cc3c4c(cnc3cc2F)N(C)C(=O)C42CCC2)cc1NS(C)(=O)=O [Compound A]
[1]; [8]
  CI50 (combination index, method of Chou): 0.3
[1]; single agent, 7 days, CTG, read-out: Single Agent IC50 (mean ± SEM) Compound A
  IC50: 1000 ± 170 nM
[2]; Compound A in combination with niraparib, 13 days
  CI50 (combination index, method of Chou): 0.5
[2]; single agent, 13 days, CTG, read-out: Single Agent IC50 (mean ± SEM) Compound A
  IC50: 810 ± 80 nM
[3]; [8]
  CI50 (combination index, method of Chou): 0.4
[3]; UWB1289, 168 h, single agent, 7 days, CTG, read-out: Single Agent IC50 (mean ± SEM) Compound A
  IC50: 260 ± 100 nM
[4]; single agent, CTG, read-out: Single Agent IC50 (mean ± SEM) Compound A
  IC50: 800 ± 10 nM
[5]
  clonogenic survival: dose-dependent decrease in survival
[6]
  clonogenic survival: exhibited sensitivity to Compound A
[7]
  clonogenic survival: rescued with re-expression of wild-type BRCA1

## NC(=O)c1cccc2cn(-c3ccc([C@@H]4CCCNC4)cc3)nc12 [Niraparib, niraparib]
[1]; addition of 0.25 μM Compound A
  shift of the dose response curve of niraparib: 10 fold
[1]; 0.25 μM Compound A + increasing concentrations of niraparib for 7 days, read-out: IC50 + 0.25 μM Compound A (mean ± SEM) Niraparib
  IC50: 380 ± 180 nM
[1]; single agent, 7 days, CTG, read-out: Single Agent IC50 (mean ± SEM) Niraparib
  IC50: 3700 ± 270 nM
[2]; addition of 0.5 μM Compound A
  shift of the dose response curve of niraparib: -5 fold
[2]; 0.5 μM Compound A + increasing concentrations of niraparib for 13 days, read-out: IC50 + 0.5 μM Compound A (mean ± SEM) Niraparib
  IC50: 110 ± 10 nM
[2]; single agent, 13 days, CTG, read-out: Single Agent IC50 (mean ± SEM) Niraparib
  IC50: 550 ± 50 nM
[3]; UWB1289, 168 h, single agent, 7 days, CTG, read-out: Single Agent IC50 (mean ± SEM) Niraparib
  IC50: 330 ± 90 nM
[3]; UWB1289, 0.25 μM Compound A + niraparib for 3 days, then niraparib alone for additional 4 days, read-out: IC50 + 0.25 μM Compound A (mean ± SEM) Niraparib
  IC50: < 14 nM
[3]; 0.25 μM Compound A for 3 days of a 7-day treatment with niraparib
  shift of the dose response curve of niraparib: > 23 fold
[4]; 0.25 μM Compound A + niraparib for 3 days, then niraparib alone for additional 4 days, read-out: IC50 + 0.25 μM Compound A (mean ± SEM) Niraparib
  IC50: 140 ± 20 nM
[4]; single agent, CTG, read-out: Single Agent IC50 (mean ± SEM) Niraparib
  IC50: 1400 ± 110 nM
[4]; UWB1.289+BRCA1 cells, 0.25 μM Compound A for 3 days of a 7-day treatment with niraparib
  shift of the dose response curve of niraparib: 10 fold
